Assay type in all cases: functional
Conditions in all cases: read-out: ED50 (the source's name)

One assay relates to XF498. Nature of the assay: Cytotoxicity against human XF498 cells.
The subject of the next assay is SK-OV-3. Nature of the assay: Cytotoxicity against human SK-OV-3 cells.
A further assay has as its system A549. Nature of the assay: Cytotoxicity against human A549 cells.
The subject of the next assay is SK-MEL-2. Nature of the assay: Cytotoxicity against human SK-MEL-2 cells.
The test system of a further assay is HCT-15. Nature of the assay: Cytotoxicity against human HCT15 cells.

Values after ≈ are worked out from the molar mass of the structure shown.

With `CCCCCCCC#CC#C/C=C/C(C)=O` [MONTIPORYNE A], the EC50 in the assay on XF498 was 1.9 µg/mL (≈ 8.78 µM); in the assay on SK-OV-3, 3.2 µg/mL (≈ 14.8 µM); in the assay on A549, above 50 µg/mL; with SK-MEL-2, 1.4 µg/mL (≈ 6.47 µM); in the assay on HCT-15, 3.7 µg/mL (≈ 17.1 µM).
`C=CCCCCCCCC#CC#C/C=C\C(C)=O` [MONTIPORYINE D]: the EC50 in the assay on XF498 is above 50 µg/mL; in the assay on SK-OV-3, 45.1 µg/mL (≈ 186 µM); in the assay on A549, above 50 µg/mL; with SK-MEL-2, 43.1 µg/mL (≈ 178 µM); with HCT-15, above 50 µg/mL.
For `CCCCCCCC#CC#CC1CC(=O)C=C(C)C1` (stereo not given) [MONTIPORYINE F], the EC50 was 31.3 µg/mL (≈ 122 µM) with XF498; 29.2 µg/mL (≈ 114 µM) in the assay with SK-OV-3; above 50 µg/mL in the assay on A549; 36.7 µg/mL (≈ 143 µM) with SK-MEL-2; 45.1 µg/mL (≈ 176 µM) with HCT-15.
As for `CCCCCCCC#CC#CC1=CC(=O)NCCC1` [MONTIPORYINE E], the EC50 in the assay with XF498, with SK-OV-3, in the assay on A549, with SK-MEL-2 and in the assay with HCT-15 was above 50 µg/mL each time.
For `C=CCCCCCCCC#CC#C/C=C/C(C)=O` [MONTIPORYNE C], the EC50 in the assay with XF498 was 3.2 µg/mL (≈ 13.2 µM); with SK-OV-3 it was 2.5 µg/mL (≈ 10.3 µM); with A549 it was above 50 µg/mL; in the assay with SK-MEL-2, 1.5 µg/mL (≈ 6.19 µM); in the assay on HCT-15, 5.2 µg/mL (≈ 21.5 µM).
Consider `CCCCCCCC#CC#C/C=C\C(C)=O` [MONTIPORYNE B], for which the EC50 in the assay on XF498 is above 50 µg/mL; with SK-OV-3 it was 25.9 µg/mL (≈ 120 µM); in the assay with A549, above 50 µg/mL; in the assay with SK-MEL-2, 42.6 µg/mL (≈ 197 µM); in the assay on HCT-15, above 50 µg/mL.

For the origin of these results see ChEMBL document CHEMBL1155622, “New acetylenic compounds from the stony coral Montipora sp” (2000).
